According to patent publication US9168259B2 (GRÜNENTHAL GMBH, priority 2010, dated 2015):

Molecular target: T1, KCNQ2/3 channels (Homo sapiens, UniProt O43525+O43526)
T1 construct: expressed in transfected cells
Test: Fluorescence assay using a voltage sensitive dye (fluorimetry)
Assay type: cell-based
Conditions: CHO-K1 cells expressing KCNQ2/3; for Emax: CHO-K1, plateau effect relative to saturated retigabine (50 μM) = 100%, negative values = antagonistic, read-out: Fluorimetry % efficacy (retigabine = 100%); for EC50: IC50 where % efficacy is negative, read-out: Fluorimetry EC50/IC50
From the text: Method I. Fluorescence Assay Using a Voltage Sensitive Dye (Fluorimetry)
These voltage-sensitive dyes are fluorescent dyes and, therefore, are forming the link between cell potential influenced by KCNQ modulation and fluorescence intensity. A KCNQ agonist leads to an opening of the channel, potassium and dye efflux, a following hyperpolarization and a reduction of the inner fluorescence intensity in a kinetic protocol. If applying an ion jump by KCl depolarization, KCNQ agonists increase the ΔF/F value. An antagonist performs vice versa, respectively.
Therefore, ‘fluorimetry EC50’ is a measure for the compound potency. The compound efficacy is mirrored by ‘fluorimetry % efficacy’ (‘% Efficacy’) and refers to the maximum response achievable by the test compound, i.e. the plateau effect. This drug's plateau effect is related to the plateau effect, which can be achieved by applying a saturated concentration of a reference compound, e.g. Retigabine (50 μM), in independent wells of the same experimental plate or series.
[…] CHO-K1 cells expressing KCNQ2/3 channels are cultivated adherently at 37° C., 5% CO2 and 95% humidity in cell culture bottles (e.g. 80 cm^2 TC flasks, Nunc) with DMEM-high glucose (Sigma Aldrich, D7777) including 10% FCS (PAN Biotech, e.g. 3302-P270521) or alternatively MEM Alpha Medium (1×, liquid, Invitrogen, #22571), 10% fetal calf serum (FCS) (Invitrogen, #10270-106, heat-inactivated) and the necessary selection antibiotics.
The cell number is determined using a CASY™ cell counter (TCC, Schärfe System). Depending on the optimal density for each individual cell line, 20,000-30,000 cells/well/100 μl are seeded onto 96-well Corning™ CellBIND™ assay plates (Flat Clear Bottom Black Polystyrene Microplates, #3340). Freshly seeded cells are then left to settle for one hour at room temperature, followed by incubation for 24 hours at 37° C., 5% CO2 and 95% humidity.
The voltage-sensitive fluorescent dye from the Membrane Potential Assay Kit (Red™ Bulk format part R8123 for FLIPR, MDS Analytical Technologies™) is prepared by dissolving the contents of one vessel Membrane Potential Assay Kit Red Component A in 200 ml of extracellular buffer (ES buffer, 120 mM NaCl, 1 mM KCl, 10 mM HEPES, 2 mM CaCl2, 2 mM MgCl2, 10 mM glucose; pH 7.4). After removal of the nutrient medium, the cells are washed once with 200 μl of ES buffer, then loaded for 45 min at room temperature in 100 μl of dye solution in the dark.
Fluorescence measurements are carried out in a BMG Labtech FLUOstar™, BMG Labtech NOVOstar™ or BMG Labtech POLARstar™ instrument (525 nm excitation, 560 nm emission, Bottom Read mode). After incubation with the dye, 50 μl of the test substances in the desired concentrations, or 50 μl of ES buffer for control purposes, are applied to the wells of the assay plate and incubated for 30 min at room temperature while being shielded from light. The fluorescence intensity of the dye is then measured for 5 min and the fluorescence value F1 of each well is thus determined at a given, constant time. 15 μl of a KCl solution are then added to each well (final concentration of potassium ions 92 mM). The change in fluorescence intensity is subsequently monitored until all the relevant values have been obtained (mainly 5-30 min). At a given time post KCl application, a fluorescence value F2 is determined, in this case at the time of the fluorescence peak.
For calculation, the fluorescence intensity F2 is corrected for the fluorescence intensity F1, and the activity (ΔF/F) of the target compound on the potassium channel is determined as follows:
In order to determine whether a substance has agonistic activity,
[formula] can be related to
[formula] of control wells.
[formula] is determined by adding to the well only the buffer solution instead of the test substance, determining the value F1K of the fluorescence intensity, adding the potassium ions as described above, and measuring a value F2K of the fluorescence intensity.

T1 sequence (O43526 whole entry): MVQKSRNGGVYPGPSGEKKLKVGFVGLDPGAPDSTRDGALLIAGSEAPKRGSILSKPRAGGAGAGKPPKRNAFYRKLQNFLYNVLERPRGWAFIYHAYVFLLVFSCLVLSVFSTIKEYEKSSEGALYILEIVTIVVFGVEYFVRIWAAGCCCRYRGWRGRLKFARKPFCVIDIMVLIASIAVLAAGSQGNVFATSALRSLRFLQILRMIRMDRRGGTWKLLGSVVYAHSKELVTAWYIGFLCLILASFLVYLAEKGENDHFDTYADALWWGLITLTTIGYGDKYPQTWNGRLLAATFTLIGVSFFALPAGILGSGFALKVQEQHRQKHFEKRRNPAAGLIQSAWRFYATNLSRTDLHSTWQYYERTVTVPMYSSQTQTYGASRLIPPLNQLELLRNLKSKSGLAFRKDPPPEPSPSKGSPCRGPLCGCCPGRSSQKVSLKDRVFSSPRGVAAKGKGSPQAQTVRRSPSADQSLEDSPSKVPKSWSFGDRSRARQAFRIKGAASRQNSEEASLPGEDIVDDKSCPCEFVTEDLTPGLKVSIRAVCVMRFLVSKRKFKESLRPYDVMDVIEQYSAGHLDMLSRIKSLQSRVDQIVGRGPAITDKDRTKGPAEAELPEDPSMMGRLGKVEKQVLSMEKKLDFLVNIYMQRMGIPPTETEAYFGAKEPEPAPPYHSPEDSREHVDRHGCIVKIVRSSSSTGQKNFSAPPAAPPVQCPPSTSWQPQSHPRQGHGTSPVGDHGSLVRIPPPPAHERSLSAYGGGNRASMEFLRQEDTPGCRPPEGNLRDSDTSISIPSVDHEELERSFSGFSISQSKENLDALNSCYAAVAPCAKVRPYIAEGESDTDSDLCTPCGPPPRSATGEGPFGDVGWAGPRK
T1 sequence (O43525 whole entry): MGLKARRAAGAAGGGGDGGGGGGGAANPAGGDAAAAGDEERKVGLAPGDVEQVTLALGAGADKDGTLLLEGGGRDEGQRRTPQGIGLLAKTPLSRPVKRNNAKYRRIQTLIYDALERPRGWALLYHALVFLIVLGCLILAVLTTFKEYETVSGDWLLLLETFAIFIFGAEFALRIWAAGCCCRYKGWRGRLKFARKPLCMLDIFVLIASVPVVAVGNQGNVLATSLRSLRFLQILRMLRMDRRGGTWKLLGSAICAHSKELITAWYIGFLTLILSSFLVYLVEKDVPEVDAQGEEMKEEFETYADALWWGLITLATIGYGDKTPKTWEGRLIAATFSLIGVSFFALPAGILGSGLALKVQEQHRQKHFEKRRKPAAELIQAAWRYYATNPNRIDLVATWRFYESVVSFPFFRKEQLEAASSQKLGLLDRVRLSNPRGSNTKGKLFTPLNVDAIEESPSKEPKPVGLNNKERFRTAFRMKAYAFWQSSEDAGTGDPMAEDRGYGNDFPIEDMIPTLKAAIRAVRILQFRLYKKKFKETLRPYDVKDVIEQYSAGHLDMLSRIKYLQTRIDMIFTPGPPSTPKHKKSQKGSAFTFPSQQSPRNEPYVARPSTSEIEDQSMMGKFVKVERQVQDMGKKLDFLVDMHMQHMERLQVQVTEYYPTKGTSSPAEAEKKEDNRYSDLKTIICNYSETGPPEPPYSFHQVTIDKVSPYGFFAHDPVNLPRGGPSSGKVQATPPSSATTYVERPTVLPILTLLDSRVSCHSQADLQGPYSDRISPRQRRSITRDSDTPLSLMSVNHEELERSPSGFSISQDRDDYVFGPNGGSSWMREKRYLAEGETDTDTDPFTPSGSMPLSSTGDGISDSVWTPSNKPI

Row | Compound | Emax [%] | EC50 [nM]
1 | CCCCCCNC(=O)c1c(C)cc(N2CCOCC2)nc1SCC [Example 217, 2-Ethylsulfanyl-N-hexyl-4-methyl-6-morpholin-4-yl-pyridine-3-carboxylic acid amide] | 181 | 407
2 | CCN(C)c1nc(N2CCOCC2)cc(C)c1C(=O)NCc1cccc(F)c1 [Example 127, 2-(Ethyl-methyl-amino)-N-[(3-fluorophenyl)-methyl]-4-methyl-6-morpholin-4-yl-pyridine-3-carboxylic acid amide] | 238 | 385
3 | CCSc1nc(N2CCOC(CCOC)C2)cc(C)c1C(=O)NCc1cccc(F)c1 (stereo not shown) [Example 229, 2-Ethylsulfanyl-N-[(3-fluorophenyl)-methyl]-6-[2-(2-methoxy-ethyl)-morpholin-4-yl]-4-methyl-pyridine-3-carboxylic acid amide] | 132 | 719
4 | Cc1cc(N2CCOCC2)nc(N(C)C)c1C(=O)NCc1cc(F)cc(F)c1 [Example 242, N-[(3,5-Difluoro-phenyl)-methyl]-2-dimethylamino-4-methyl-6-morpholin-4-yl-pyridine-3-carboxylic acid amide] | 214 | 366
5 | CCSc1nc(N2CCOCC2)cc(C)c1C(=O)NCc1ccc(C(F)(F)F)cc1 [Example 60, 2-Ethylsulfanyl-4-methyl-6-morpholin-4-yl-N-[[4-(trifluoromethyl)-phenyl]methyl]-pyridine-3-carboxylic acid amide] | 128 | 126
6 | CCSc1nc(N2CCOCC2)cc(C)c1C(=O)NCc1ccc(SC(F)(F)F)cc1 [Example 75, 2-Ethylsulfanyl-4-methyl-6-morpholin-4-yl-N-[[4-(trifluoromethylsulfanyl)-phenyl]-methyl]-pyridine-3-carboxylic acid amide] | 135 | 61
7 | CCSc1nc(N2CCOCC2)cc(C)c1C(=O)NCCc1ccccc1 [Example 54, 2-Ethylsulfanyl-4-methyl-6-morpholin-4-yl-N-phenethyl-pyridine-3-carboxylic acid amide] | 103 | 2120
8 | CCSc1nc(N2CCOC[C@H]2C)cc(C)c1C(=O)NCCCC(C)(C)C [Example 193, N-(4,4-Dimethyl-pentyl)-2-ethylsulfanyl-4-methyl-6-[(3R)-3-methyl-morpholin-4-yl]-pyridine-3-carboxylic acid amide] | 246 | 29
9 | CCSc1nc(N2C3CCC2COC3)cc(C)c1C(=O)NCc1cccc(F)c1 [Example 345, 2-Ethylsulfanyl-N-[(3-fluorophenyl)-methyl]-4-methyl-6-(3-oxa-8-azabicyclo[3.2.1]octan-8-yl)-pyridine-3-carboxylic acid amide] | 200 | 122
10 | CCSc1nc(N2CCOCC2)cc(C)c1C(=O)NCc1ccc(OC)cc1 [Example 137, 2-Ethylsulfanyl-N-[(4-methoxyphenyl)-methyl]-4-methyl-6-morpholin-4-yl-pyridine-3-carboxylic acid amide] | 151 | 1070
11 | CCSc1nc(N2CCC(OC)C2)cc(C)c1C(=O)NCc1cccc(F)c1 (stereo not shown) [Example 30, 2-Ethylsulfanyl-N-[(3-fluorophenyl)-methyl]-6-(3-methoxy-pyrrolidin-1-yl)-4-methyl-pyridine-3-carboxylic acid amide] | 144 | 1320
12 | CCSc1nc(N(C)c2ccccn2)cc(C)c1C(=O)NCc1cccc(F)c1 [Example 170, 2-Ethylsulfanyl-N-[(3-fluorophenyl)-methyl]-4-methyl-6-(methyl-pyridin-2-yl-amino)-pyridine-3-carboxylic acid amide] | 84 | 1240
13 | CCSc1nc(N2CCC(C)(C)CC2)cc(C)c1C(=O)NCc1cccc(F)c1 [Example 74, 6-(4,4-Dimethyl-piperidin-1-yl)-2-ethylsulfanyl-N-[(3-fluorophenyl)-methyl]-4-methyl-pyridine-3-carboxylic acid amide] | 70 | 702
14 | CCSc1nc(N2CCN(C3CC3)CC2)cc(C)c1C(=O)NCc1cccc(F)c1 [Example 73, 6-(4-Cyclopropyl-piperazin-1-yl)-2-ethylsulfanyl-N-[(3-fluorophenyl)-methyl]-4-methyl-pyridine-3-carboxylic acid amide] | 67 | 3010
15 | CCSc1nc(N2CCOCC2)cc(C)c1C(=O)NCCCOC [Example 78, 2-Ethylsulfanyl-N-(3-methoxy-propyl)-4-methyl-6-morpholin-4-yl-pyridine-3-carboxylic acid amide] | 31 | 
16 | CCOc1nc(N2CCOC[C@H]2C)cc(C)c1C(=O)NCc1ccc(F)cc1 [Example 182, 2-Ethoxy-N-[(4-fluorophenyl)-methyl]-4-methyl-6-[(3R)-3-methyl-morpholin-4-yl]-pyridine-3-carboxylic acid amide] | 146 | 125

Other lines, results leading:

Row | Emax [%] | EC50 [nM] | Compound
17 | 229 | 62 | CCCc1nc(N2CCOCC2)cc(C)c1C(=O)NCCCC(C)(C)C [Example 313, N-(4,4-Dimethyl-pentyl)-4-methyl-6-morpholin-4-yl-2-propyl-pyridine-3-carboxylic acid amide]
18 | 202 | 37 | CCSc1nc(N2CCOCC2)cc(C)c1C(=O)NCCC(C)C(C)(C)C (stereo not shown) [Example 339, 2-Ethylsulfanyl-4-methyl-6-morpholin-4-yl-N-(3,4,4-trimethyl-pentyl)-pyridine-3-carboxylic acid amide]
19 | 170 | 301 | CCSc1nc(N(C)C2CCOCC2)cc(C)c1C(=O)NCc1cccc(F)c1 [Example 258, 2-Ethylsulfanyl-N-[(3-fluorophenyl)-methyl]-4-methyl-6-(methyl-tetrahydro-pyran-4-yl-amino)-pyridine-3-carboxylic acid amide]
20 | 163 | 59 | CCCc1nc(N2CCOCC2)cc(C)c1C(=O)NCc1ccc(Cl)cc1 [Example 326, N-[(4-Chlorophenyl)-methyl]-4-methyl-6-morpholin-4-yl-2-propyl-pyridine-3-carboxylic acid amide]
21 | 157 | 729 | CCSc1nc(N2CCOCC2)cc(COC)c1C(=O)NCc1cccc(F)c1 [Example 346, 2-Ethylsulfanyl-N-[(3-fluorophenyl)-methyl]-4-(methoxymethyl)-6-morpholin-4-yl-pyridine-3-carboxylic acid amide]
22 | 46 |  | CCSc1nc(N2CCOCC2)cc(C)c1C(=O)NCc1ccc(F)c(CO)c1 [Example 353, 2-Ethylsulfanyl-N-[[4-fluoro-3-(hydroxymethyl)-phenyl]-methyl]-4-methyl-6-morpholin-4-yl-pyridine-3-carboxylic acid amide]
23 | 221 | 101 | CCSc1nc(N2CCOC[C@H]2COC)cc(C)c1C(=O)NCc1ccc(Cl)cc1 [Example 256, N-[(4-Chlorophenyl)-methyl]-2-ethylsulfanyl-6-[(3R)-3-(methoxymethyl)-morpholin-4-yl]-4-methyl-pyridine-3-carboxylic acid amide]
24 | 242 | 18 | Cc1cc(N2CCOCC2)nc(C(C)C)c1C(=O)NCCCC(C)(C)C [Example 314, N-(4,4-Dimethyl-pentyl)-2-isopropyl-4-methyl-6-morpholin-4-yl-pyridine-3-carboxylic acid amide]
